ChEMBL document CHEMBL1201862, “PubChem BioAssay data set” (2004)
“And” between values parts separate entries of the source, which are not always exact repeats. Equal values may be shown once.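 Interpolation was linear, between the two tested concentrations surrounding the appropriate level; five concentrations were tested over 48 hours in 96-well plates. GI50: concentration for 50% inhibition of growth.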 The source made the active and inactive calls. Cut-off read from the data, not from the text of the source: active = GI50 up to about 1.1 µM and inactive = higher.

Key:
Test in all cases: growth of human tumour cells (NCI), 48 h
[1] = test system: HOP-92
[2] = test system: SK-MEL-28
[3] = test system: TK-10
[4] = test system: HCC 2998
[5] = test system: BT-549
[6] = test system: UACC-257
[7] = test system: SF-539
[8] = test system: SF-295
[9] = test system: RPMI-8226
[10] = test system: KM12
[11] = test system: U-251
[12] = test system: SW-620
[13] = test system: OVCAR-8
[14] = test system: PC-3
[15] = test system: DU-145
[16] = test system: K562
[17] = test system: COLO 205
[18] = test system: A549
[19] = test system: MDA-N
[20] = test system: UACC-62
[21] = test system: CAKI-1
[22] = test system: ACHN
[23] = test system: OVCAR-3
[24] = test system: LOX IMVI
[25] = test system: SK-MEL-2
[26] = test system: IGROV-1
[27] = test system: NCI-H226
[28] = test system: T47D
[29] = test system: SK-MEL-5
[30] = test system: 786-0
[31] = test system: NCI-H23
[32] = test system: HOP-62
[33] = test system: MDA-MB-435
[34] = test system: M14
[35] = test system: MDA-MB-231
[36] = test system: EKVX
[37] = test system: OVCAR-4
[38] = test system: RXF 393
[39] = test system: CCRF-CEM
[40] = test system: SK-OV-3
[41] = test system: SNB-75
[42] = test system: MCF7
[43] = test system: A498
[44] = test system: NCI-H460
[45] = test system: NCI/ADR-RES
[46] = test system: SN12C
[47] = test system: SF-268
[48] = test system: Malme-3M
[49] = test system: HCT-15
[50] = test system: HT-29
[51] = test system: OVCAR-5
[52] = test system: HCT-116
[53] = test system: MOLT-4
[54] = test system: HL-60
[55] = test system: NCI-H522
[56] = test system: SR
[57] = test system: SNB-19
[58] = test system: UO-31
[59] = test system: Hs-578T

Measured: GI50

O=C1C2=Cc3ccccc3OC2(O)Oc2cc(O)cc(O)c21 (stereo not drawn)
inactive: [1] > 100 µM | [2] > 100 µM | [3] > 100 µM | [4] > 100 µM | [5] > 100 µM | [6] > 100 µM | [7] > 100 µM | [8] > 100 µM | [9] > 100 µM | [10] > 100 µM | [11] > 100 µM | [12] > 100 µM | [13] > 100 µM | [14] > 100 µM | [15] > 100 µM | [16] 81.7 µM | [17] > 100 µM | [18] > 100 µM | [19] > 100 µM | [20] 71.8 µM | [21] > 100 µM | [22] > 100 µM | [23] > 10 µM | [24] > 100 µM | [25] > 100 µM | [26] > 100 µM | [27] > 100 µM | [28] > 100 µM | [29] > 100 µM | [30] > 100 µM | [31] 59.2 µM | [32] > 100 µM | [33] > 100 µM | [34] > 100 µM | [35] > 100 µM | [36] > 100 µM | [37] 92.3 µM | [38] > 100 µM | [39] 57.4 µM | [40] > 100 µM | [41] > 100 µM | [42] > 100 µM | [43] > 100 µM | [44] 41.5 µM | [45] > 100 µM | [46] > 100 µM | [47] > 100 µM | [48] > 100 µM | [50] > 100 µM | [51] > 100 µM | [52] > 100 µM | [53] > 100 µM
> 10 µM: [49]

CC1CCC2(NC1)OC1CC3C4CC=C5CC(O)CCC5(C)C4CCC3(C)C1C2C (stereo not drawn)
inactive: [1] 19.5 µM and 17.5 µM | [3] 12.4 µM and 20.4 µM | [5] 32.8 µM and 48.5 µM | [6] 55.8 µM and 49.1 µM | [7] 17.3 µM and 10.9 µM | [54] 15.1 µM and 11.6 µM | [8] 24.9 µM and 18.7 µM | [9] 20.6 µM and 10.9 µM | [12] 18.5 µM and 27.8 µM | [55] 31.1 µM and 22.4 µM | [14] 22.7 µM and 34.9 µM | [16] 14.9 µM | [17] 58.5 µM and 40.6 µM | [20] 27.2 µM and 18.1 µM | [25] 29.9 µM and 19.5 µM | [56] 4 µM and 2.87 µM | [26] 32.5 µM and 35 µM | [27] 54 µM and 27.8 µM | [28] 23.4 µM and 17.5 µM | [31] 39.4 µM and 37.1 µM | [34] 76.6 µM and 42.1 µM | [35] 12.8 µM and 24.9 µM | [36] 22.5 µM and 37.4 µM | [38] 25.2 µM and 16.8 µM | [39] 12.4 µM and 15.2 µM | [40] 24.8 µM and 15.7 µM | [41] 4.72 µM | [42] 23.2 µM and 42.9 µM | [44] 25.9 µM and 14.1 µM | [45] 13.2 µM and 14.4 µM | [46] 15 µM and 22.8 µM | [50] 24.1 µM and 12.5 µM | [51] 39.1 µM and 40.3 µM | [52] 18.8 µM and 9.86 µM | [53] 18.3 µM and 18.6 µM
32.5 µM and 38.8 µM: [49]

C=C1CCC[C@@H](C)C(O)[C@@H]2OC(=O)C(=C)[C@@H]2C[C@@H](OC(C)=O)[C@@]2(C)CC[C@@H]1O2 (stereo partly drawn)
active: [55] 916 nM | [41] 0.91 µM
inactive: [1] 7.96 µM | [2] 7.98 µM | [3] 7.96 µM | [4] 7.89 µM | [5] 7.52 µM | [6] 8.18 µM | [7] 7.98 µM | [8] 11.1 µM | [9] 8.85 µM | [10] 7.76 µM | [11] 9.57 µM | [12] 8.3 µM | [13] 7.19 µM | [57] 45.2 µM | [14] 8.39 µM | [15] 7.66 µM | [58] 8.09 µM | [16] 5.5 µM | [17] 6.37 µM | [59] 8.67 µM | [18] 15.8 µM | [20] 4.53 µM | [21] 6.89 µM | [22] 6.89 µM | [23] 5.37 µM | [25] 8.34 µM | [56] 1.75 µM | [26] 8.15 µM | [27] 8.49 µM | [28] 9.66 µM | [29] 6.92 µM | [30] 8.95 µM | [31] 8.09 µM | [32] 8.09 µM | [33] 7.71 µM | [34] 6.97 µM | [35] 8.36 µM | [36] 7.62 µM | [37] 13.7 µM | [38] 6.49 µM | [39] 1.54 µM | [40] 10.8 µM | [42] 5.55 µM | [43] 9.84 µM | [45] 6.78 µM | [46] 8.51 µM | [47] 7.8 µM | [50] 8.47 µM | [51] 7.87 µM | [52] 6.97 µM | [53] 4.84 µM
3.78 µM: [49]
